According to article PMC9299988, “Substrate‐Inspired Fragment Merging and Growing Affords Efficacious LasB Inhibitors” (Angewandte Chemie (International Ed. in English), 2021):
Where two headings read alike, the source gives them in different places.

Experiments:
Cytotoxicity assay, A549 = settings: human, A549 cells
[1] = Cytotoxicity assay, HepG2; settings: human, HepG2 cells
LasB [2] = target: T1, LasB (Pseudomonas aeruginosa, UniProt Q02RJ6); experiment: biochemical; assay type: biochemical
T1 construct: The purification of LasB from P. aeruginosa P14 supernatant and the; made in house; host or cells: P. aeruginosa PA14 (native producer), culture supernatant
T1 sequence (Q02RJ6 198-498): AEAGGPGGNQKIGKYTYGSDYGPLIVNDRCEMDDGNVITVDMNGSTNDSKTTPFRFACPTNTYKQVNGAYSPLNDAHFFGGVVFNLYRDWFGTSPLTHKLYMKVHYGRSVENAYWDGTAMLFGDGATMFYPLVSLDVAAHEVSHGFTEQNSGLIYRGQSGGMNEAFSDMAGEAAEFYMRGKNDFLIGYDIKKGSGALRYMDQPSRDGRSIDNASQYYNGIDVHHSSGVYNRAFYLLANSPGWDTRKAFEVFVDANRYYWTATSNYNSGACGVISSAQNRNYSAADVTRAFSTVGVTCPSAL
Method: LasB Inhibition Assay. […]
(§1) Preparation of P. aeruginosa supernatant and LasB activity evaluation. A culture of a single colony of PA14 was grown in lysogeny broth medium at 28 °C with constant shaking at 130 rpm for 3 days. Then, the culture was centrifuged at 4 °C, 5000 rpm for 30 minutes. Finally, the supernatant was passed through a membrane filter of […] to sterilize it. The supernatant

P. aeruginosa PA14 = experiment: Minimum inhibitory concentration (MIC) assay; assay type: cell-based, Pseudomonas aeruginosa
ADAM17 = ADAM17 (Homo sapiens, UniProt P78536); experiment: Inhibition assay with human off-target ADAM17 (TACE); assay type: biochemical
ADAM17, sequence (P78536 215-824): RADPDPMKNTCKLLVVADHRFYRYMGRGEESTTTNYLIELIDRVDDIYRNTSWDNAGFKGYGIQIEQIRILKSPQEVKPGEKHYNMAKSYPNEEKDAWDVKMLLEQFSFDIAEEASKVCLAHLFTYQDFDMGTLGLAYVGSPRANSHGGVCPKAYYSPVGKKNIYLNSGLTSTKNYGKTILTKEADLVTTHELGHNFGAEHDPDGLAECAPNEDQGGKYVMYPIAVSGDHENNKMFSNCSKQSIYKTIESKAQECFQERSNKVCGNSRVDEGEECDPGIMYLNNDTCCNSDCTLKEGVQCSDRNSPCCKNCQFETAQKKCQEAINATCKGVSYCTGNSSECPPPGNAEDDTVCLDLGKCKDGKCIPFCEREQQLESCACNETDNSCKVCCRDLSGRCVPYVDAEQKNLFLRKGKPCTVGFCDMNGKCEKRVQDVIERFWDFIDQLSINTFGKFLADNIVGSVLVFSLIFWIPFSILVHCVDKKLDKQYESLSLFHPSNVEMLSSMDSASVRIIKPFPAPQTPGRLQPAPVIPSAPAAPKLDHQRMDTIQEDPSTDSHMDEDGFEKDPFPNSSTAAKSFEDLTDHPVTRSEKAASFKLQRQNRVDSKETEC

LasB [3] = target: T1, LasB; experiment: Calculation of Ligand Efficiency (LE) and Lipophilic Ligand Efficiency (LLE); settings: calculated
Source text: Although structure‐guided exploration of the N‐aryl ring substitution provided us with a strong starting point for lead optimization, systematic variation of the substituent in the α‐position (R^1) should be considered to exploit the lipophilicity of the S2′ pocket. In addition, compound 7 g only occupies a small fraction (approx. 24%) of the total predicted binding pocket volume, leaving the S2′ pocket largely untouched (Figure S4). Therefore, extension of the thiol group in that direction should allow additional ligand‐protein interactions, leading to a further improved inhibitory potency. […]

[4] = Cytotoxicity assay, HEK 293; settings: human, HEK 293 cells
[5] = system: Galleria mellonella larvae; experiment: Galleria mellonella larvae survival model with P. aeruginosa PA14 supernatant; assay type: in vivo; settings: for survival of larvae: 0.25 nmol compound injected with PA14 supernatant, three days of incubation, compared to PBS injected larvae; for survival of larvae, compound in PBS: compound in PBS without PA14 supernatant
Method: We next analyzed the antivirulence activity of LasB inhibitors in vivo, using a simple model based on G. mellonella larvae. […] We injected the larvae with the supernatant (s.n.) of P. aeruginosa PA14 with or without 0.25 nmol of either 4 or 7 g, incubated them for three days and recorded the survival once per day (Figure 3). […] Treatment of larvae with 0.25 nmol of compound 7 g increased survival up to 60% compared to PBS injected larvae.
PA14 s.n. was also present during compound treatment. PBS served as a negative control (dot dash). […]
as §1

LasB [6] = target: T1, LasB; settings: read-out: IC50 (known LasB inhibitors); Figure 1, known LasB inhibitors; cited from earlier work
HDAC-8 = target: T2, HDAC-8 (Homo sapiens, UniProt Q9BY41); experiment: Inhibition assay with human off-target HDAC-8; assay type: biochemical; settings: Table S2
T2 sequence (Q9BY41 1-377): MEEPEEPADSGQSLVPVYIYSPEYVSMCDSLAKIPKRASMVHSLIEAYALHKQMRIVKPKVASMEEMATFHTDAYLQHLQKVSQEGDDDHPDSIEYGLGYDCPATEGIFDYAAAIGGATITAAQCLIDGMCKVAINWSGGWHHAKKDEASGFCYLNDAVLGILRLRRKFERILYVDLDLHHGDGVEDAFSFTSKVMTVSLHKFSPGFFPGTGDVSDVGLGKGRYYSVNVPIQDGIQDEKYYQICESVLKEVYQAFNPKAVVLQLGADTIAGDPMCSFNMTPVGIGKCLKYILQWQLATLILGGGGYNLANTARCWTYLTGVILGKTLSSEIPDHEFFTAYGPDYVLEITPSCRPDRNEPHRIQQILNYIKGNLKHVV

MMP-7 = target: T3, MMP-7 (Homo sapiens, UniProt P09237); experiment: Inhibition assay with human off-target MMP-7; assay type: biochemical; settings: Table S2; concentration not given
T3 sequence (P09237 95-267): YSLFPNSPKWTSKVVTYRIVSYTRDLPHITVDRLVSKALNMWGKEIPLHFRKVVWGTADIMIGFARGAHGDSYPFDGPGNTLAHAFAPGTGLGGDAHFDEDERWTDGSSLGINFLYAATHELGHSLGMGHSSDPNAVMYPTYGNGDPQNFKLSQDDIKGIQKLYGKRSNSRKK

MMP-8 = MMP-8 (Homo sapiens, UniProt P22894); experiment: Inhibition assay with human off-target MMP-8; assay type: biochemical; settings: Table S2; concentration not given
MMP-8, sequence (P22894 101-467): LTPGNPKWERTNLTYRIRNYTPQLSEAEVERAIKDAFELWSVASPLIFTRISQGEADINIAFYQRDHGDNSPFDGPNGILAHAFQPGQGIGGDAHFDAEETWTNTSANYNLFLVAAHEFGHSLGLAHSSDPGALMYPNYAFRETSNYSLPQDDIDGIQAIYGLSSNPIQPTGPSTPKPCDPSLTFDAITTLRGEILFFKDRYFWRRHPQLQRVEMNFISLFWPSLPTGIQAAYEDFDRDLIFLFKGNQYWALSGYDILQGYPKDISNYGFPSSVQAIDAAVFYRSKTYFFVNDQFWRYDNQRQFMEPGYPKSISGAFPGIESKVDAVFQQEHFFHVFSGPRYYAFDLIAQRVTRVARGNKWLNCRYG

MMP-1 = target: T4, MMP-1 (Homo sapiens, UniProt P03956); experiment: Inhibition assay with human off-target MMP-1; assay type: biochemical; settings: Table S2; concentration not given
T4 sequence (P03956 100-469): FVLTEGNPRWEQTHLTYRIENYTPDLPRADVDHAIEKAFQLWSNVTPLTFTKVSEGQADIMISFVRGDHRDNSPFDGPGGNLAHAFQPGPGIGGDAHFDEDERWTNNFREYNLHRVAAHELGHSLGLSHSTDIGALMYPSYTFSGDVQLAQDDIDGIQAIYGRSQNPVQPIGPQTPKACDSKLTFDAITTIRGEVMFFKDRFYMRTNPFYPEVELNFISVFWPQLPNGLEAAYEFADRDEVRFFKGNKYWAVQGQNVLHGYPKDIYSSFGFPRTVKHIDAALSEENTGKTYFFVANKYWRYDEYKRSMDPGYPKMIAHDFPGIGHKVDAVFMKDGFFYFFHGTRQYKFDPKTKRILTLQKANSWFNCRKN

MMP-2 = target: T5, MMP-2 (Homo sapiens, UniProt P08253); experiment: Inhibition assay with human off-target MMP-2; assay type: biochemical; settings: Table S2; concentration not given
T5 sequence (P08253 110-660): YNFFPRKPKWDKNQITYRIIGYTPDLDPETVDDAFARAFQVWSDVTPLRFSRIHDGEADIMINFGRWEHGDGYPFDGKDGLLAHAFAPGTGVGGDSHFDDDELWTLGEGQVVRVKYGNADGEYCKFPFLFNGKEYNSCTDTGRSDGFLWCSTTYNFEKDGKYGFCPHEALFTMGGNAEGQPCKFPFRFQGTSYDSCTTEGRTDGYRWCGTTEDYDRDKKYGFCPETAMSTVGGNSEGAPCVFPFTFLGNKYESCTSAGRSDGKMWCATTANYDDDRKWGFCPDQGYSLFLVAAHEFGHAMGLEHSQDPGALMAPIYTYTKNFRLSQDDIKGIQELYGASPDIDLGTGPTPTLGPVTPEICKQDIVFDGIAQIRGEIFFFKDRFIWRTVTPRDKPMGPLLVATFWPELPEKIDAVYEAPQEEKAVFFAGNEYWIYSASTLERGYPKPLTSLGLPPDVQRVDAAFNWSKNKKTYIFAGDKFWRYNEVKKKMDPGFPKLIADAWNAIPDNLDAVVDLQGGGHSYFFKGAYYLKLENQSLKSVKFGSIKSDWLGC

MMP-3 = MMP-3 (Homo sapiens, UniProt P08254); experiment: Inhibition assay with human off-target MMP-3; assay type: biochemical; settings: Table S2; concentration not given
MMP-3, sequence (P08254 100-477): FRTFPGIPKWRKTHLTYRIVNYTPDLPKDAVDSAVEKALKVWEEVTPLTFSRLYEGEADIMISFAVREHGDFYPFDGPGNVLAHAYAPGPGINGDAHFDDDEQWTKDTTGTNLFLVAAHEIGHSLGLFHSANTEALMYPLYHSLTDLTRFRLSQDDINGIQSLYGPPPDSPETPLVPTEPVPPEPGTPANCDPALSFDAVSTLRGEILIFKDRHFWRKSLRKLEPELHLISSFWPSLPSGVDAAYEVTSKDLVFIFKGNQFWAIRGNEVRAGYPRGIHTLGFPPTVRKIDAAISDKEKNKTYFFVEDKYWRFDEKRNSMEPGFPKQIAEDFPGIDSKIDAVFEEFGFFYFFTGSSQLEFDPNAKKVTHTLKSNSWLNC

HDAC-3 = HDAC-3 (Homo sapiens, UniProt O15379); experiment: Inhibition assay with human off-target HDAC-3; assay type: biochemical; settings: Table S2
HDAC-3, sequence (O15379 whole entry): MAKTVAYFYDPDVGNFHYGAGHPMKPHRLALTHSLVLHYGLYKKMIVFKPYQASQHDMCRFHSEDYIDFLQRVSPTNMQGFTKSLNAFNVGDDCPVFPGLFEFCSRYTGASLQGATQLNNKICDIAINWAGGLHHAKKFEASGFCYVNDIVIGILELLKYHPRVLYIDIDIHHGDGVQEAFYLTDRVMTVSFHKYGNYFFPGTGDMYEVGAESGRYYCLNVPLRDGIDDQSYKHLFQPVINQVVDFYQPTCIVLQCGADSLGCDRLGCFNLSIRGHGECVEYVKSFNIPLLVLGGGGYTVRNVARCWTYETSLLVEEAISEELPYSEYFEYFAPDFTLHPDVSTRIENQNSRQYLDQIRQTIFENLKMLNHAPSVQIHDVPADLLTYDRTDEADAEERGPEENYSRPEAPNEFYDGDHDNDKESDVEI
HDAC-3, sequence (Q9Y618 395-489 partner limits assumed): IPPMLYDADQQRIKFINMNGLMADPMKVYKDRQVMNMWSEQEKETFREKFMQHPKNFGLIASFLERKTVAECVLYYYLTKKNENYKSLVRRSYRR

MMP-14 = MMP-14 (Homo sapiens, UniProt P50281); experiment: Inhibition assay with human off-target MMP-14; assay type: biochemical; settings: Table S2; concentration not given
in vitro [7] = settings: human
[8] = system: human hepatoma cell line (HepG2); experiment: Cytotoxicity assay, HepG2; settings: HepG2, at 100 µM
in vitro [9] = settings: human; remark: listed apart in the source
in vitro [10] = settings: human; remark: listed apart in the source
[11] = system: human embryonic kidney (HEK) 293 cells; experiment: Cytotoxicity assay, HEK 293; settings: HEK cells, at 100 µM

Cc1ccc(NC(=O)C(S)Cc2ccccc2)cc1 (stereo not shown) [7 g]
IC50 (Cytotoxicity assay, A549): > 100 µM
IC50 [1]: > 100 µM
IC50 (LasB [2]): 0.48 ± 0.04 µM
MIC (P. aeruginosa PA14; Pseudomonas aeruginosa): > 100 µM
IC50 (ADAM17; Table S2, read-out: IC50 ADAM17): 4.8 ± 1.5 µM
Ligand Efficiency (LE) (LasB [3]): 0.43
Lipophilic Ligand Efficiency (LLE) (LasB [3]): 2.37
IC50 [4]: > 100 µM
survival of larvae [5]: up to 60%
survival of larvae, compound in PBS [5]: 100%

O=C(Nc1ccc(Cl)c(Cl)c1)C(S)CC1CC1 (stereo not shown) [7 c]
IC50 (LasB [2]): 6.3 ± 1.2 µM

CC(C)C[C@H](NP(=O)(O)O[C@@H]1O[C@@H](C)[C@H](O)[C@@H](O)[C@H]1O)C(=O)N[C@@H](Cc1c[nH]c2ccccc12)C(=O)O [Compound 1, phosphoramidon]
IC50 (LasB [6]): 0.207 µM

Cc1cccc(NC(=O)C(S)Cc2ccccc2)c1 (stereo not shown) [7 f]
IC50 (LasB [2]): 1 ± 0.4 µM

O=C(Nc1ccc(Cl)c(Cl)c1)C(S)CC1CCCCC1 (stereo not shown) [7 b]
IC50 (LasB [2]): 12 ± 3 µM

O=C(Nc1ccccc1)C(S)Cc1ccccc1 (stereo not shown) [7 d]
IC50 (HDAC-8): > 100 µM
IC50 (Cytotoxicity assay, A549): > 100 µM
IC50 [1]: > 100 µM
fold improvement in IC50 value compared to 7 a (LasB [2]; versus compound 7 a): two‐fold
inhibition of MMP-7 (MMP-7): n.i. (n.i. = <10% inhibition)
MIC (P. aeruginosa PA14): > 100 µM
MIC (P. aeruginosa PA14; Pseudomonas aeruginosa): > 100 µM
inhibition of MMP-8 (MMP-8): 26 ± 4%
inhibition of MMP-1 (MMP-1): n.i. (n.i. = <10% inhibition)
inhibition of MMP-2 (MMP-2): n.i. (n.i. = <10% inhibition)
inhibition of MMP-3 (MMP-3): n.i. (n.i. = <10% inhibition)
IC50 (HDAC-3): > 100 µM
IC50 [4]: > 100 µM
inhibition of MMP-14 (MMP-14): n.i. (n.i. = <10% inhibition)

O=C(CS)Nc1ccc(Cl)c(Cl)c1 [Compound 4, N‐(3,4‐dichlorophenyl) mercaptoacetamide]
IC50 (HDAC-8): > 100 µM
IC50 (in vitro [7]): > 100 µM
reduction in viability [8]: 23±3%
inhibition of MMP-7 (MMP-7): n.i. (n.i. = <10% inhibition)
MIC (P. aeruginosa PA14; Pseudomonas aeruginosa): > 100 µM
inhibition of MMP-8 (MMP-8): n.i. (n.i. = <10% inhibition)
IC50 (ADAM17): > 100 µM
inhibition of MMP-1 (MMP-1): n.i. (n.i. = <10% inhibition)
inhibition of MMP-2 (MMP-2): n.i. (n.i. = <10% inhibition)
inhibition of MMP-3 (MMP-3): n.i. (n.i. = <10% inhibition)
IC50 (in vitro [9]): > 100 µM
IC50 (in vitro [10]): > 100 µM
IC50 (HDAC-3): > 100 µM
reduction in viability [11]: 33±10%
inhibition of MMP-14 (MMP-14): n.i. (n.i. = <10% inhibition)
survival of larvae [5]: virtually no improvement in survival
survival of larvae, compound in PBS [5]: 100%

Cc1ccccc1NC(=O)C(S)Cc1ccccc1 (stereo not shown) [7 e]
IC50 (LasB [2]): 2.4 ± 1 µM
